Experimental data taken from patent US20070166774A1, “Functional immunoassay” (priority 2006, published 2007).

Tested on: antibody (anti-gadolinium-DTPA)
Experiment: Immunoassay of gadolinium DTPA, standard curve (HRP-conjugate, microtiter plate)
Assay type: binding, rabbit
Procedure: White New Zealand rabbits were injected subcutaneously with 1 mg of antigen (1 mg/ml) in multiple sites on the rabbit's back according to the schedule in Table 2. The initial injection was prepared in Freund's complete adjuvant. All other injections were prepared in Freund's incomplete adjuvant. Coating polystyrene microtiter plates. Microtiter strips were coated with 200 ul of 10 ug/ml antibody solution diluted in 0.1 M carbonate buffer pH 9 and incubated overnight at room temperature. The coated plates were blocked with a phosphate buffered saline, pH 7.4 solution containing bovine serum (5 mg/ml) and dextrose 20 mg/ml) for 30 minutes, blotted dry and stored at 4° C. until used. All plates were used within 5 days of preparation. In a typical preparation the coating antibody was a goat anti-rabbit serum. HRP-conjugates. HRP-conjugates prepared as described in Example 11 were diluted between 1 to 100 and 1 to 1000 into phosphate buffered saline, pH 7.4 buffer containing bovine albumin (1 mg/ml). General immunoassay protocols for analytes were performed as follows. 100 μl of standard or serum sample was pipeted into appropriate wells in duplicate followed by 100 μl of antibody. To each well was added 200 μl of HRP-conjugate. After a 60 minute incubation at room temperature the wells were aspirated and washed three times with phosphate buffered saline, pH 7.4 containing (0.1% serum albumin and 0.01% Tween 20. To each well was added 200 ul of substrate solution and incubated for 30 minutes at room temperature. The development of color was stopped by the addition of 50 μl of stop solution. The wells were read using a microtiter plate reader. Standard curve data for gadolinium DTPA is shown in Table 3. Standard values were chosen specifically for this assay as shown in Table 3.

Structure (SMILES): O=C([O-])CN(CCN(CC(=O)[O-])CC(=O)[O-])CCN(CC(=O)[O-])CC(=O)[O-].[Gd+3] [Gadolinium DTPA, gadolinium DTPA]
- Optical density, 450 nm (Gadolinium DTPA concentration 1 × 10^−2 M): 0.29
- Optical density, 450 nm (Gadolinium DTPA concentration 1 × 10^−3 M): 0.42
- Optical density, 450 nm (Gadolinium DTPA concentration 1 × 10^−4 M): 0.48
- Optical density, 450 nm (Gadolinium DTPA concentration 1 × 10^−5 M): 0.57
- Optical density, 450 nm (Gadolinium DTPA concentration 1 × 10^−6 M): 0.58
- Optical density, 450 nm (Gadolinium DTPA concentration 5 × 10^−5 M): 0.55
- Optical density, 450 nm (Gadolinium DTPA concentration 5 × 10^−6 M): 0.61
